What was measured:
MATIN [1] = assay: Post-emergence herbicidal action against MATIN; format: in vivo, Matricaria inodora
Method in brief: (§1)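 Weeds in sandy loam soil received a post-emergence spray at the one-leaf stage. Compounds were applied as WP or EC in water, 600 to 800 l/ha, with 0.2% wetting agent. Activity in % was judged visually after roughly 3 weeks against untreated plants.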

DIGSA [2] = assay: Pre-emergence herbicidal action against DIGSA; format: in vivo, Digitaria sanguinalis
Method in brief: (§2)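 Visual rating at 3 weeks vs untreated pots; 0–100% scale, 100% = plants died. Treatment: aqueous WP/EC spray onto covering soil, 600–800 l/ha, 0.2% wetter, seeds in sandy loam.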

SETVI [3] = assay: Pre-emergence herbicidal action against SETVI; format: in vivo, Setaria viridis; conditions: dosage 80 g/ha
Method in brief: as §2

STEME [4] = assay: Post-emergence herbicidal action against STEME; format: in vivo, Stellaria media
Description: Seeds of monocotyledonous and dicotyledonous weed and crop plants are laid out in sandy loam soil in wood-fiber pots, covered with soil and cultivated in a greenhouse under good growth conditions. 2 to 3 weeks after sowing, the test plants are treated at the one-leaf stage. The compounds of the invention, formulated in the form of wettable powders (WP) or as emulsion concentrates (EC), are then sprayed onto the green parts of the plants in the form of an aqueous suspension or emulsion at a water application rate equivalent to 600 to 800 l/ha, with addition of 0.2% wetting agent. After the test plants have been left to stand in the greenhouse under optimal growth conditions for about 3 weeks, the action of the preparations is assessed visually in comparison to untreated controls (herbicidal action in percent (%): 100% activity=the plants have died, 0% activity=like control plants). […] The tables below illustrate, in an illustrative manner, the post-emergence herbicidal action of the compounds of the invention, the herbicidal activity being stated in percent.

MATIN [5] = assay: Pre-emergence herbicidal action against MATIN; format: in vivo, Matricaria inodora
Method in brief: as §2

STEME [6] = assay: Pre-emergence herbicidal action against STEME; format: in vivo, Stellaria media
Method in brief: as §2

SETVI [7] = assay: Post-emergence herbicidal action against SETVI; format: in vivo, Setaria viridis
Method in brief: as §1

ECHCG [8] = assay: Post-emergence herbicidal action against ECHCG; format: in vivo, Echinochloa crus-galli
Method in brief: as §1

VIOTR [9] = assay: Pre-emergence herbicidal action against VIOTR; format: in vivo, Viola tricolor
Method in brief: as §2

AMARE [10] = assay: Post-emergence herbicidal action against AMARE; format: in vivo, Amaranthus retroflexus; conditions: 20 g/ha, visual assessment about 3 weeks after treatment, 100% = plants have died, 0% = like control plants
Method in brief: as §1

DIGSA [11] = assay: Post-emergence herbicidal action against DIGSA; format: in vivo, Digitaria sanguinalis
Method in brief: as §1

PHBPU [12] = assay: Pre-emergence herbicidal action against PHBPU; format: in vivo, Pharbitis purpurea; conditions: Ipomoea purpurea, 504 h, dosage 80 g/ha
Method in brief: as §2

VIOTR [13] = assay: Post-emergence herbicidal action against VIOTR; format: in vivo, Viola tricolor; conditions: 20 g/ha
Method in brief: as §1

PHBPU [14] = assay: Post-emergence herbicidal action against PHBPU; format: in vivo, Pharbitis purpurea
Method in brief: as §1

ALOMY [15] = assay: Pre-emergence herbicidal action against ALOMY; format: in vivo, Alopecurus myosuroides; conditions: Alopecurus myosuroides, 504 h; 80 g/ha, pre-emergence, scored visually after 3 weeks vs untreated controls (100% = plants have died, 0% = like control plants)
Method in brief: as §2

ABUTH [16] = assay: Pre-emergence herbicidal action against ABUTH; format: in vivo, Abutilon theophrasti
Method in brief: as §2

AVEFA [17] = assay: Pre-emergence herbicidal action against AVEFA; format: in vivo, Avena fatua; conditions: Avena fatua, 504 h; 80 g/ha, pre-emergence
Method in brief: as §2

VERPE [18] = assay: Post-emergence herbicidal action against VERPE; format: in vivo, Veronica persica; conditions: Veronica persica, 504 h
Method in brief: as §1

AVEFA [19] = assay: Post-emergence herbicidal action against AVEFA; format: in vivo, Avena fatua; conditions: 20 g/ha, visual assessment about 3 weeks after treatment, 100% = plants have died, 0% = like control plants
Method in brief: as §1

AMARE [20] = assay: Pre-emergence herbicidal action against AMARE; format: in vivo, Amaranthus retroflexus
Method in brief: as §2

ECHCG [21] = assay: Pre-emergence herbicidal action against ECHCG; format: in vivo, Echinochloa crus-galli; conditions: 80 g/ha
Method in brief: as §2

ABUTH [22] = assay: Post-emergence herbicidal action against ABUTH; format: in vivo, Abutilon theophrasti; conditions: visual assessment about 3 weeks after treatment vs untreated controls
Method in brief: as §1

ALOMY [23] = assay: Post-emergence herbicidal action against ALOMY; format: in vivo, Alopecurus myosuroides; conditions: dosage 20 g/ha, visual assessment about 3 weeks after treatment vs untreated controls
Method in brief: as §1

VERPE [24] = assay: Pre-emergence herbicidal action against VERPE; format: in vivo, Veronica persica; conditions: dosage 80 g/ha
Method in brief: as §2

[25] = Tripleurospermum inodorum, 504 h, dosage 20 g/ha
[26] = 80 g/ha, scored visually after 3 weeks vs untreated controls (100% = plants have died, 0% = like control plants)

Structure (SMILES): CNC(=O)c1c(C(F)F)ccc(C(=O)Nc2nnnn2C)c1C [Example 1-44]
- pest or weed control at 5 g/ha (MATIN [1]; Tripleurospermum inodorum, 504 h, dosage 5 g/ha): 80%
- pest or weed control at 20 g/ha (MATIN [1]; [25]): 90%
- pest or weed control at 20 g/ha (DIGSA [2]; Digitaria sanguinalis, 504 h, dosage 20 g/ha): 90%
- pest or weed control at 80 g/ha (DIGSA [2]; Digitaria sanguinalis, 504 h, dosage 80 g/ha): 100%
- pest or weed control at 80 g/ha (SETVI [3]; Setaria viridis, 504 h): 100%
- pest or weed control at 20 g/ha (STEME [4]; Stellaria media, 504 h, 20 g/ha): 80%
- pest or weed control at 5 g/ha (STEME [4]; Stellaria media, 504 h, dosage 5 g/ha): 80%
- pest or weed control at 20 g/ha (MATIN [5]; [25]): 90%
- pest or weed control at 80 g/ha (MATIN [5]; Tripleurospermum inodorum, 504 h, dosage 80 g/ha): 90%
- pest or weed control at 20 g/ha (STEME [6]; Stellaria media, 504 h, dosage 20 g/ha): 90%
- pest or weed control at 80 g/ha (STEME [6]; Stellaria media, 504 h, dosage 80 g/ha): 90%
- pest or weed control at 20 g/ha (SETVI [7]; Setaria viridis, 504 h, dosage 20 g/ha): 90%
- pest or weed control at 20 g/ha (ECHCG [8]; Echinochloa crus-galli, 504 h, dosage 20 g/ha): 80%
- pest or weed control at 80 g/ha (VIOTR [9]; Viola tricolor, 504 h, dosage 80 g/ha): 90%
- pest or weed control at 20 g/ha (AMARE [10]; Amaranthus retroflexus, 504 h): 100%
- pest or weed control at 5 g/ha (DIGSA [11]; Digitaria sanguinalis, 504 h, 5 g/ha): 80%
- pest or weed control at 20 g/ha (DIGSA [11]; Digitaria sanguinalis, 504 h, 20 g/ha): 90%
- pest or weed control at 80 g/ha (PHBPU [12]): 80%
- pest or weed control at 20 g/ha (VIOTR [13]; Viola tricolor, 504 h): 80%
- pest or weed control at 20 g/ha (PHBPU [14]; Ipomoea purpurea, 504 h, dosage 20 g/ha): 80%
- pest or weed control at 80 g/ha (ALOMY [15]): 90%
- pest or weed control at 80 g/ha (ABUTH [16]; Abutilon theophrasti, 504 h, 80 g/ha, scored visually after 3 weeks vs untreated controls (100% = plants have died, 0% = like control plants)): 100%
- pest or weed control at 20 g/ha (ABUTH [16]; Abutilon theophrasti, 504 h, dosage 20 g/ha, scored visually after 3 weeks vs untreated controls, 100% = plants have died, 0% = like control plants, read-out: Pre-emergence action against ABUTH (herbicidal activity in percent)): 100%
- pest or weed control at 80 g/ha (AVEFA [17]): 90%
- pest or weed control at 5 g/ha (VERPE [18]; 5 g/ha): 80%
- pest or weed control at 20 g/ha (VERPE [18]; 20 g/ha): 100%
- pest or weed control at 20 g/ha (AVEFA [19]; Avena fatua, 504 h): 80%
- pest or weed control at 20 g/ha (AMARE [20]; Amaranthus retroflexus, 504 h, 20 g/ha, scored visually after 3 weeks vs untreated controls, 100% = plants have died, 0% = like control plants): 100%
- pest or weed control at 80 g/ha (AMARE [20]; Amaranthus retroflexus, 504 h, 80 g/ha, scored visually after 3 weeks vs untreated controls, 100% = plants have died, 0% = like control plants): 100%
- pest or weed control at 80 g/ha (ECHCG [21]; Echinochloa crus-galli, 504 h): 90%
- pest or weed control at 5 g/ha (ABUTH [22]; Abutilon theophrasti, 504 h, dosage 5 g/ha): 90%
- pest or weed control at 20 g/ha (ABUTH [22]; Abutilon theophrasti, 504 h, dosage 20 g/ha): 100%

Structure (SMILES): CCNC(=O)c1c(C(F)F)ccc(C(=O)Nc2nnco2)c1SC [Example 5-75]
- Post-emergence action against MATIN in % (MATIN [1]; dosage 20 g/ha): 80%
- Pre-emergence action against DIGSA in % (DIGSA [2]; dosage 20 g/ha): 100%
- Pre-emergence action against DIGSA in % (DIGSA [2]; dosage 80 g/ha): 100%
- Pre-emergence action against SETVI in % (SETVI [3]): 100%
- Post-emergence action against STEME in % (STEME [4]; 20 g/ha): 100%
- Post-emergence action against STEME in % (STEME [4]; dosage 5 g/ha): 90%
- Pre-emergence action against MATIN in % (MATIN [5]; dosage 20 g/ha): 80%
- Pre-emergence action against MATIN in % (MATIN [5]; dosage 80 g/ha): 100%
- Pre-emergence action against STEME in % (STEME [6]; dosage 20 g/ha): 100%
- Pre-emergence action against STEME in % (STEME [6]; dosage 80 g/ha): 100%
- Post-emergence action against SETVI in % (SETVI [7]; dosage 5 g/ha): 80%
- Post-emergence action against SETVI in % (SETVI [7]; dosage 20 g/ha): 80%
- Post-emergence action against ECHCG in % (ECHCG [8]; dosage 5 g/ha): 80%
- Post-emergence action against ECHCG in % (ECHCG [8]; dosage 20 g/ha): 80%
- Pre-emergence action against VIOTR in % (VIOTR [9]; dosage 20 g/ha): 100%
- Pre-emergence action against VIOTR in % (VIOTR [9]; dosage 80 g/ha): 100%
- Post-emergence action at 20 g/ha against AMARE in % (AMARE [10]): 90%
- Post-emergence action against DIGSA in % (DIGSA [11]; 5 g/ha): 90%
- Post-emergence action against DIGSA (DIGSA [11]; 20 g/ha): 90%
- Post-emergence action against VIOTR in % (VIOTR [13]): 80%
- Post-emergence action against PHBPU in % (PHBPU [14]; dosage 5 g/ha): 80%
- Post-emergence action against PHBPU in % (PHBPU [14]; dosage 20 g/ha): 80%
- Pre-emergence action against ABUTH (herbicidal activity) (ABUTH [16]; [26]): 100%
- Pre-emergence action against ABUTH (herbicidal activity in percent) (ABUTH [16]; dosage 20 g/ha, scored visually after 3 weeks vs untreated controls, 100% = plants have died, 0% = like control plants): 100%
- Post-emergence action against ALOMY in % (ALOMY [23]): 80%
- Pre-emergence action against VERPE in % (VERPE [24]): 90%
- Post-emergence action at 20 g/ha against AVEFA in % (AVEFA [19]): 80%
- Pre-emergence action against AMARE in % (AMARE [20]; 20 g/ha, scored visually after 3 weeks vs untreated controls, 100% = plants have died, 0% = like control plants): 100%
- Pre-emergence action against AMARE in % (AMARE [20]; [26]): 100%
- Pre-emergence action against ECHCG in % (ECHCG [21]): 100%
- Post-emergence action against ABUTH in % (ABUTH [22]; dosage 5 g/ha): 90%
- Post-emergence action against ABUTH in % (ABUTH [22]; dosage 20 g/ha): 90%
